Source: PubChem BioAssay (NCI)
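Protocol summary: plate cells (96-well), add compound at 5 concentrations, incubate 48 h, interpolate endpoints linearly. GI50 is the concentration that inhibits growth by half. TGI is the concentration that stops growth completely.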

How the values were obtained:
Assay in all cases: growth of human tumour cells (NCI), 48 h
786-0 renal = tested on: 786-0 renal
A498 renal = tested on: A498 renal
A549 NSCLC = tested on: A549 NSCLC
ACHN renal = tested on: ACHN renal
BT-549 breast = tested on: BT-549 breast
CAKI-1 renal = tested on: CAKI-1 renal
CCRF-CEM leukemia = tested on: CCRF-CEM leukemia
COLO 205 colon = tested on: COLO 205 colon
DU-145 prostate = tested on: DU-145 prostate
EKVX NSCLC = tested on: EKVX NSCLC
HCC-2998 colon = tested on: HCC-2998 colon
HCT-116 colon = tested on: HCT-116 colon
HCT-15 colon = tested on: HCT-15 colon
HL-60(TB) leukemia = tested on: HL-60(TB) leukemia
HOP-62 NSCLC = tested on: HOP-62 NSCLC
HOP-92 NSCLC = tested on: HOP-92 NSCLC
HS 578T breast = tested on: HS 578T breast
IGROV1 ovarian = tested on: IGROV1 ovarian
K-562 leukemia = tested on: K-562 leukemia
KM12 colon = tested on: KM12 colon
LOX IMVI melanoma = tested on: LOX IMVI melanoma
M14 melanoma = tested on: M14 melanoma
MCF7 breast = tested on: MCF7 breast
MDA-MB-231 breast = tested on: MDA-MB-231 breast
MDA-MB-435 = tested on: MDA-MB-435
MOLT-4 leukemia = tested on: MOLT-4 leukemia
NCI-H23 lung = tested on: NCI-H23 lung
NCI-H460 lung = tested on: NCI-H460 lung
NCI-H522 lung = tested on: NCI-H522 lung
NCI/ADR-RES ovarian = tested on: NCI/ADR-RES ovarian
OVCAR-3 ovarian = tested on: OVCAR-3 ovarian
OVCAR-4 ovarian = tested on: OVCAR-4 ovarian
OVCAR-5 ovarian = tested on: OVCAR-5 ovarian
OVCAR-8 ovarian = tested on: OVCAR-8 ovarian
PC-3 prostate = tested on: PC-3 prostate
RPMI-8226 leukemia = tested on: RPMI-8226 leukemia
RXF 393 renal = tested on: RXF 393 renal
SF-268 CNS = tested on: SF-268 CNS
SF-295 CNS = tested on: SF-295 CNS
SF-539 CNS = tested on: SF-539 CNS
SK-MEL-2 melanoma = tested on: SK-MEL-2 melanoma
SK-MEL-28 melanoma = tested on: SK-MEL-28 melanoma
SK-MEL-5 melanoma = tested on: SK-MEL-5 melanoma
SK-OV-3 ovarian = tested on: SK-OV-3 ovarian
SN12C renal = tested on: SN12C renal
SNB-19 CNS = tested on: SNB-19 CNS
SNB-75 CNS = tested on: SNB-75 CNS
SR leukemia = tested on: SR leukemia
SW-620 colon = tested on: SW-620 colon
T-47D breast = tested on: T-47D breast
TK-10 renal = tested on: TK-10 renal
U251 CNS = tested on: U251 CNS
UACC-257 melanoma = tested on: UACC-257 melanoma
UACC-62 melanoma = tested on: UACC-62 melanoma
UO-31 renal = tested on: UO-31 renal

Q: Which GI50 (786-0 renal) does the source give for C=C1CC[C@@H]2[C@](C)(COC(C)=O)[C@H](OC(C)=O)CC[C@@]2(C)[C@@H]1CC(Nc1ccc(S(=O)(=O)Nc2ncccn2)cc1)C1=CCOC1=O (stereo not given in full) here?
A: 1770 nM

Q: And the TGI (786-0 renal)?
A: 3390 nM

Q: What about the GI50 (A498 renal) of the same molecule?
A: 12300 nM

Q: And the TGI (A498 renal)?
A: 24700 nM

Q: What about the GI50 (A549 NSCLC) of the same molecule?
A: 3180 nM

Q: What about the TGI (A549 NSCLC) of the same molecule?
A: 9970 nM

Q: What about the GI50 (ACHN renal) of the same molecule?
A: 1720 nM

Q: What about the TGI (ACHN renal) of the same molecule?
A: 3270 nM

Q: And the GI50 (BT-549 breast)?
A: 1640 nM

Q: And the TGI (BT-549 breast)?
A: 3390 nM

Q: What about the GI50 (CAKI-1 renal) of the same molecule?
A: 1740 nM

Q: What about the TGI (CAKI-1 renal) of the same molecule?
A: 4040 nM

Q: What about the GI50 (CCRF-CEM leukemia) of the same molecule?
A: 738 nM

Q: What about the TGI (CCRF-CEM leukemia) of the same molecule?
A: 3410 nM

Q: And the GI50 (COLO 205 colon)?
A: 1780 nM

Q: What about the TGI (COLO 205 colon) of the same molecule?
A: 3800 nM

Q: What about the GI50 (DU-145 prostate) of the same molecule?
A: 1620 nM

Q: What about the TGI (DU-145 prostate) of the same molecule?
A: 3070 nM

Q: What about the GI50 (EKVX NSCLC) of the same molecule?
A: 8180 nM

Q: And the TGI (EKVX NSCLC)?
A: 20600 nM

Q: And the GI50 (HCC-2998 colon)?
A: 2100 nM

Q: What about the TGI (HCC-2998 colon) of the same molecule?
A: 3810 nM

Q: What about the GI50 (HCT-116 colon) of the same molecule?
A: 879 nM

Q: What about the TGI (HCT-116 colon) of the same molecule?
A: 2490 nM

Q: What about the GI50 (HCT-15 colon) of the same molecule?
A: 1210 nM

Q: What about the TGI (HCT-15 colon) of the same molecule?
A: 3330 nM

Q: What about the GI50 (HL-60(TB) leukemia) of the same molecule?
A: 1300 nM

Q: What about the TGI (HL-60(TB) leukemia) of the same molecule?
A: 3640 nM

Q: What about the GI50 (HOP-62 NSCLC) of the same molecule?
A: 3020 nM

Q: What about the TGI (HOP-62 NSCLC) of the same molecule?
A: 6440 nM

Q: And the GI50 (HOP-92 NSCLC)?
A: 3100 nM

Q: And the TGI (HOP-92 NSCLC)?
A: 8850 nM

Q: What about the GI50 (HS 578T breast) of the same molecule?
A: 3540 nM

Q: And the TGI (HS 578T breast)?
A: 24400 nM

Q: What about the GI50 (IGROV1 ovarian) of the same molecule?
A: 2040 nM

Q: What about the TGI (IGROV1 ovarian) of the same molecule?
A: 4410 nM

Q: And the GI50 (K-562 leukemia)?
A: 1730 nM

Q: And the TGI (K-562 leukemia)?
A: 11700 nM

Q: What about the GI50 (KM12 colon) of the same molecule?
A: 2330 nM

Q: What about the TGI (KM12 colon) of the same molecule?
A: 5540 nM

Q: What about the GI50 (LOX IMVI melanoma) of the same molecule?
A: 891 nM

Q: What about the TGI (LOX IMVI melanoma) of the same molecule?
A: 2210 nM

Q: And the GI50 (M14 melanoma)?
A: 1440 nM

Q: And the TGI (M14 melanoma)?
A: 3980 nM

Q: And the GI50 (MCF7 breast)?
A: 1070 nM

Q: What about the TGI (MCF7 breast) of the same molecule?
A: 4540 nM

Q: And the GI50 (MDA-MB-231 breast)?
A: 1950 nM

Q: And the TGI (MDA-MB-231 breast)?
A: 3930 nM

Q: And the GI50 (MDA-MB-435)?
A: 1580 nM

Q: And the TGI (MDA-MB-435)?
A: 3770 nM

Q: And the GI50 (MOLT-4 leukemia)?
A: 2270 nM

Q: What about the TGI (MOLT-4 leukemia) of the same molecule?
A: 8370 nM

Q: And the GI50 (NCI-H23 lung)?
A: 2110 nM

Q: What about the TGI (NCI-H23 lung) of the same molecule?
A: 5380 nM

Q: What about the GI50 (NCI-H460 lung) of the same molecule?
A: 1980 nM

Q: What about the TGI (NCI-H460 lung) of the same molecule?
A: 4060 nM

Q: And the GI50 (NCI-H522 lung)?
A: 498 nM

Q: And the TGI (NCI-H522 lung)?
A: 2070 nM

Q: What about the GI50 (NCI/ADR-RES ovarian) of the same molecule?
A: 1830 nM

Q: What about the TGI (NCI/ADR-RES ovarian) of the same molecule?
A: 5280 nM

Q: What about the GI50 (OVCAR-3 ovarian) of the same molecule?
A: 1210 nM

Q: And the TGI (OVCAR-3 ovarian)?
A: 2540 nM

Q: What about the GI50 (OVCAR-4 ovarian) of the same molecule?
A: 1850 nM

Q: What about the TGI (OVCAR-4 ovarian) of the same molecule?
A: 5260 nM

Q: What about the GI50 (OVCAR-5 ovarian) of the same molecule?
A: 1980 nM

Q: And the TGI (OVCAR-5 ovarian)?
A: 3850 nM

Q: And the GI50 (OVCAR-8 ovarian)?
A: 1480 nM

Q: And the TGI (OVCAR-8 ovarian)?
A: 3550 nM

Q: And the GI50 (PC-3 prostate)?
A: 2110 nM

Q: What about the TGI (PC-3 prostate) of the same molecule?
A: 5070 nM

Q: What about the GI50 (RPMI-8226 leukemia) of the same molecule?
A: 541 nM

Q: And the TGI (RPMI-8226 leukemia)?
A: 3120 nM

Q: And the GI50 (RXF 393 renal)?
A: 1950 nM

Q: What about the TGI (RXF 393 renal) of the same molecule?
A: 3580 nM

Q: And the GI50 (SF-268 CNS)?
A: 1930 nM

Q: What about the TGI (SF-268 CNS) of the same molecule?
A: 4160 nM

Q: And the GI50 (SF-295 CNS)?
A: 6070 nM

Q: What about the TGI (SF-295 CNS) of the same molecule?
A: 18700 nM

Q: And the GI50 (SF-539 CNS)?
A: 1500 nM

Q: What about the TGI (SF-539 CNS) of the same molecule?
A: 2940 nM

Q: What about the GI50 (SK-MEL-2 melanoma) of the same molecule?
A: 2360 nM

Q: And the TGI (SK-MEL-2 melanoma)?
A: 7200 nM

Q: And the GI50 (SK-MEL-28 melanoma)?
A: 1690 nM

Q: And the TGI (SK-MEL-28 melanoma)?
A: 3240 nM

Q: And the GI50 (SK-MEL-5 melanoma)?
A: 1900 nM

Q: And the TGI (SK-MEL-5 melanoma)?
A: 3850 nM

Q: What about the GI50 (SK-OV-3 ovarian) of the same molecule?
A: 6270 nM

Q: What about the TGI (SK-OV-3 ovarian) of the same molecule?
A: 18300 nM

Q: And the GI50 (SN12C renal)?
A: 430 nM

Q: What about the TGI (SN12C renal) of the same molecule?
A: 1960 nM

Q: What about the GI50 (SNB-19 CNS) of the same molecule?
A: 1630 nM

Q: And the TGI (SNB-19 CNS)?
A: 3760 nM

Q: What about the GI50 (SNB-75 CNS) of the same molecule?
A: 1270 nM

Q: What about the TGI (SNB-75 CNS) of the same molecule?
A: 3230 nM

Q: What about the GI50 (SR leukemia) of the same molecule?
A: 313 nM

Q: And the TGI (SR leukemia)?
A: 17200 nM

Q: And the GI50 (SW-620 colon)?
A: 864 nM

Q: And the TGI (SW-620 colon)?
A: 2250 nM

Q: What about the GI50 (T-47D breast) of the same molecule?
A: 2000 nM

Q: And the TGI (T-47D breast)?
A: 5460 nM

Q: And the GI50 (TK-10 renal)?
A: 2770 nM

Q: And the TGI (TK-10 renal)?
A: 6030 nM

Q: And the GI50 (U251 CNS)?
A: 1740 nM

Q: What about the TGI (U251 CNS) of the same molecule?
A: 3280 nM

Q: What about the GI50 (UACC-257 melanoma) of the same molecule?
A: 2340 nM

Q: And the TGI (UACC-257 melanoma)?
A: 6070 nM

Q: What about the GI50 (UACC-62 melanoma) of the same molecule?
A: 1110 nM

Q: And the TGI (UACC-62 melanoma)?
A: 2560 nM

Q: What about the GI50 (UO-31 renal) of the same molecule?
A: 1510 nM

Q: What about the TGI (UO-31 renal) of the same molecule?
A: 2970 nM
